The source of these data is US20230364032A1, “USE OF 2-HOBA TO TREAT ATHEROSCLEROSIS” (Vanderbilt University, priority 2020, published 2023).

In this test the test system is MDA. Nature of the test: MDA-HOBA (propenal-HOBA) adducts in urine and tissues after oral gavage (LC-MS/MS). Type of test: in vivo, mouse. On the procedure: Urine samples were collected for 16 h after oral gavage of male Ldlr^−/− mice on a WD with either 2-HOBA or 4-HOBA. After 16 h, the Ldlr^−/− mice were sacrificed and the HOBA-propenal adducts in urine (14A), liver (14B), kidney (14C) and spleen (14D) were measured using LC-MS/MS as described in methods (14A-D) (Mann-Whitney test, ** indicates p<0.01 and *** indicates p<0.001).
Ldlr^−/− and WT on C57BL/6 background mice were obtained from the Jackson Laboratory. Animal protocols were performed according to the regulations of Vanderbilt University's Institutional Animal Care and Usage Committee. Mice were maintained on chow or a Western-type diet containing 21% milk fat and 0.15% cholesterol (Teklad). Eight week old, female Ldlr^−/− mice on a chow diet were pretreated with vehicle alone (Water) or containing either 1 g/L of 4-HOBA or 1 g/L of 2-HOBA. 4-HOBA (as hydrochloride salt) was synthesized as previously described^21. 2-HOBA (as the acetate salt, CAS 1206675-01-5) was manufactured by TSI Co., Ltd. (Missoula, MT) and obtained from Metabolic Technologies, Inc., Ames, IA^24. A commercial production lot was used (Lot 16120312), and the purity of the commercial lot was verified to be >99% via HPLC and NMR spectroscopy^24. After two weeks, the mice continued to receive these treatments but were switched to a western diet for 16 weeks to induce hypercholesterolemia and atherosclerosis. Similarly, 12 week-old male Ldlr^−/− mice were pretreated with vehicle alone (water) or containing 1 g/L of 2-HOBA for two weeks and were then switched to a western diet for 16 weeks to induce hypercholesterolemia and atherosclerosis, while continuing the treatment with 2-HOBA or water alone^58, 59, 60 Based on the average weight and daily consumption of water per mouse the estimated daily dosage with 1 g/L of 2-HOBA is 200 mg/Kg. […] Eight week old, male Ldlr^−/− mice were fed a western diet for 16 weeks and were continuously treated with water containing either 2-HOBA or 4-HOBA. Urine samples were collected using metabolic cages (2 mice in one cage) during 18 h after oral gavage with either 2-HOBA or 4-HOBA (5 mg each mouse).
The scavenger-MDA adducts were extracted, (1) from homogenate of tissue (equivalent of 30 mg) or (2) from cells (1 ml), three times with 500 μl of ethyl acetate. The extract was dried down, resuspended in 100 μl of ACN-water (1:1, v/v with 0.1% formic acid), vortexed, and filtered through a 0.22 μm spin X column. The reactions were analyzed by LC-EST/MS/MS using the column a Phenomenex Kinetex column at a flow rate of 0.1 ml/min. The gradient consisted of Solvent A, water with 0.2% formic acid and solvent B, acetonitrile with 0.2% formic acid. The gradient was as follows: 0-2 min 99.9% A, 2-9 min 99.9-0.1% A, 9-12 min 99.9% B. The mass spectrometer was operated in the positive ion mode, and the spray voltage was maintained at 5,000 V. Nitrogen was used for the sheath gas and auxiliary gas at pressures of 30 and 5 arbitrary units, respectively. The optimized skimmer offset was set at 10, capillary temperature was 300° C., and the tube lens voltage was specific for each compound. SRM of specific transition ions for the precursor ions at m/z 178→107 (propenal-HOBA adduct).

[1] abbreviates: 16 h post oral gavage, Ldlr−/− mice.

Entries after “also recorded” stand apart in the source; their conditions may differ.

Regarding `NCc1ccccc1O` [2-HOBA, 2-hydroxybenzylamine], under setting [1], the “propenal-HOBA adducts in kidney, 2-HOBA versus 4-HOBA” value came to 5 fold; the “propenal-HOBA adducts in liver, 2-HOBA versus 4-HOBA” value was found to be 3 fold; the “propenal-HOBA adducts in spleen, 2-HOBA versus 4-HOBA” value was 11 fold. Where the note is “Ldlr−/− mice on WD, oral gavage”, the “formation of MDA-HOBA adducts in vivo” value is on record as “abundantly formed; also recorded: more readily formed”. The “MDA-2-HOBA versus MDA-4-HOBA (propenal-HOBA) adducts in urine” value (urine collected during 16 h after oral gavage (5 mg), Ldlr−/− mice on western diet 16 weeks) was found to be 19 fold.
